This note sets out measurements from US11034650B2, “Compounds useful for treating a Mannheimia haemolytica or Histophilus somni infection” (Intervet Inc., priority 2016, dated 2021).

Each structure is given as a SMILES string. ≈ marks a conversion by molar mass, not a printed value.

The subject of one test is Mannheimia haemolytica MH 6357 (M7/2, reference strain, cattle infection strain). The test can be described thus: MIC, broth-microdilution (CLSI VET01-A4), strain MH 6357. The format is cell-based. As to conditions: Mannheimia haemolytica strain MH 6357, broth-microdilution; unit assumed. The gist of the method: (§1)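 Doubling dilution series in trays; visual read, MIC = lowest conc. with no visible turbidity; interpretation per CLSI VET01-S3.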
For orientation: In broth dilution the organism is exposed to a series of concentrations in liquid medium.
With `CC[C@H](C)[C@H](NC(=O)c1ccc(C#Cc2ccc(CN3CCS(=O)(=O)CC3)cc2)cc1)C(=O)NO` [Compound 142], the MIC MH 6357 worked out at 6.3 µg/mL (≈ 12.7 µM).

As for `CC(C)([C@H](NC(=O)c1ccc(C#Cc2ccc(CNCc3ccccc3)cc2)cc1)C(=O)NO)S(C)(=O)=O` [C.259], the MIC MH 6357 was 0.8 µg/mL (≈ 1.5 µM).

`CC[C@H](C)[C@H](NC(=O)c1ccc(C#Cc2ccc(CNC(C)COC)cc2)cc1)C(=O)NO` (stereo partly drawn) [Compound 185] came in with an MIC MH 6357 of 3.1 µg/mL (≈ 6.86 µM).

The test system of a further test is Mannheimia haemolytica MH 6374 (ATCC 33396, reference strain). The test is described as follows: MIC, broth-microdilution (CLSI VET01-A4), strain MH 6374. The format is cell-based. As to conditions: Mannheimia haemolytica strain MH 6374, broth-microdilution; unit assumed. The gist of the method: as §1
`CC[C@H](C)[C@H](NC(=O)c1ccc(C#Cc2ccc(CN3CCS(=O)(=O)CC3)cc2)cc1)C(=O)NO` [Compound 142] registered an MIC MH 6374 of 12.5 µg/mL (≈ 25.1 µM).

`CC(C)([C@H](NC(=O)c1ccc(C#Cc2ccc(CNCc3ccccc3)cc2)cc1)C(=O)NO)S(C)(=O)=O` [C.259] came in with an MIC MH 6374 of 0.4 µg/mL (≈ 0.75 µM).

Consider `CC[C@H](C)[C@H](NC(=O)c1ccc(C#Cc2ccc(CNC(C)COC)cc2)cc1)C(=O)NO` (stereo partly drawn) [Compound 185], for which the MIC MH 6374 was 6.3 µg/mL (≈ 14 µM).

A further test concerns Mannheimia haemolytica MH 10720 (154, BRD field isolate). The test is described as follows: MIC, broth-microdilution (CLSI VET01-A4), strain MH 10720. The class given is cell-based. To be noted: Mannheimia haemolytica strain MH 10720, broth-microdilution; unit assumed. The gist of the method:
as §1
In turn, `CC[C@H](C)[C@H](NC(=O)c1ccc(C#Cc2ccc(CN3CCS(=O)(=O)CC3)cc2)cc1)C(=O)NO` [Compound 142] yielded an MIC MH 10720 of 3.1 µg/mL (≈ 6.23 µM).

`CC(C)([C@H](NC(=O)c1ccc(C#Cc2ccc(CNCc3ccccc3)cc2)cc1)C(=O)NO)S(C)(=O)=O` [C.259] showed an MIC MH 10720 of at most 0.1 µg/mL.

Regarding `CC[C@H](C)[C@H](NC(=O)c1ccc(C#Cc2ccc(CNC(C)COC)cc2)cc1)C(=O)NO` (stereo partly drawn) [Compound 185], the MIC MH 10720 came to 0.8 µg/mL (≈ 1.77 µM).

For another test, the system named is Mannheimia haemolytica MH 12587 (1071, BRD field isolate, macrolide-resistance: erm+, E+). The test can be described thus: MIC, broth-microdilution (CLSI VET01-A4), strain MH 12587. The class given is cell-based. To be noted: Mannheimia haemolytica strain MH 12587, broth-microdilution; unit assumed. Put shortly: as §1
`CC[C@H](C)[C@H](NC(=O)c1ccc(C#Cc2ccc(CN3CCS(=O)(=O)CC3)cc2)cc1)C(=O)NO` [Compound 142] gave an MIC MH 12587 of 25 µg/mL (≈ 50.2 µM).

`CC(C)([C@H](NC(=O)c1ccc(C#Cc2ccc(CNCc3ccccc3)cc2)cc1)C(=O)NO)S(C)(=O)=O` [C.259] yielded an MIC MH 12587 of 0.8 µg/mL (≈ 1.5 µM).

In turn, `CC[C@H](C)[C@H](NC(=O)c1ccc(C#Cc2ccc(CNC(C)COC)cc2)cc1)C(=O)NO` (stereo partly drawn) [Compound 185] yielded an MIC MH 12587 of 6.3 µg/mL (≈ 14 µM).

Another test has as its system Mannheimia haemolytica MH 13065 (XB0446-6003.9, BRD field isolate). The test is described as follows: MIC, broth-microdilution (CLSI VET01-A4), strain MH 13065. The format is cell-based. As to conditions: Mannheimia haemolytica strain MH 13065, broth-microdilution; unit assumed. The gist of the method:
as §1
Consider `CC[C@H](C)[C@H](NC(=O)c1ccc(C#Cc2ccc(CN3CCS(=O)(=O)CC3)cc2)cc1)C(=O)NO` [Compound 142], for which the MIC MH 13065 turned out to be 12.5 µg/mL (≈ 25.1 µM).

Regarding `CC(C)([C@H](NC(=O)c1ccc(C#Cc2ccc(CNCc3ccccc3)cc2)cc1)C(=O)NO)S(C)(=O)=O` [C.259], the MIC MH 13065 turned out to be 0.4 µg/mL (≈ 0.75 µM).

`CC[C@H](C)[C@H](NC(=O)c1ccc(C#Cc2ccc(CNC(C)COC)cc2)cc1)C(=O)NO` (stereo partly drawn) [Compound 185] registered an MIC MH 13065 of 3.1 µg/mL (≈ 6.86 µM).

The subject of a further test is Mannheimia haemolytica MH 13093 (XB0472-6014.1, BRD field isolate). The test can be described thus: MIC, broth-microdilution (CLSI VET01-A4), strain MH 13093. The format is cell-based. As to conditions: Mannheimia haemolytica strain MH 13093, broth-microdilution; unit assumed. Put shortly: as §1
Regarding `CC[C@H](C)[C@H](NC(=O)c1ccc(C#Cc2ccc(CN3CCS(=O)(=O)CC3)cc2)cc1)C(=O)NO` [Compound 142], the MIC MH 13093 was 12.5 µg/mL (≈ 25.1 µM).

In the case of `CC(C)([C@H](NC(=O)c1ccc(C#Cc2ccc(CNCc3ccccc3)cc2)cc1)C(=O)NO)S(C)(=O)=O` [C.259], the MIC MH 13093 came to 0.8 µg/mL (≈ 1.5 µM).

`CC[C@H](C)[C@H](NC(=O)c1ccc(C#Cc2ccc(CNC(C)COC)cc2)cc1)C(=O)NO` (stereo partly drawn) [Compound 185]: the MIC MH 13093 was found to be 6.3 µg/mL (≈ 14 µM).

For a further test, the system named is Pasteurella multocida PM 6267 (P 2225 (L386), reference strain, mouse infection strain). The test is described as follows: MIC, broth-microdilution (CLSI VET01-A4), strain PM 6267. To be noted: Pasteurella multocida strain PM 6267, broth-microdilution; unit assumed. The format is cell-based. The gist of the method:
as §1
`CC[C@H](C)[C@H](NC(=O)c1ccc(C#Cc2ccc(CN3CCS(=O)(=O)CC3)cc2)cc1)C(=O)NO` [Compound 142] had an MIC PM 6267 of 0.2 µg/mL (≈ 0.402 µM).

In the case of `CC(C)([C@H](NC(=O)c1ccc(C#Cc2ccc(CNCc3ccccc3)cc2)cc1)C(=O)NO)S(C)(=O)=O` [C.259], the MIC PM 6267 is at most 0.1 µg/mL.

In turn, `CC[C@H](C)[C@H](NC(=O)c1ccc(C#Cc2ccc(CNC(C)COC)cc2)cc1)C(=O)NO` (stereo partly drawn) [Compound 185] came in with an MIC PM 6267 of at most 0.1 µg/mL.

The next test concerns Pasteurella multocida PM 6391 (ATCC 43137, reference strain). The test is described as follows: MIC, broth-microdilution (CLSI VET01-A4), strain PM 6391. The class given is cell-based. As to conditions: Pasteurella multocida strain PM 6391, broth-microdilution; unit assumed. Here is the method:
For example, representative compounds were tested against ***, Mannheimia haemolytica and Pasteurella multocida, using the conventional broth-dilution assay.
The Minimum inhibitory concentrations (MIC) of compounds according to the invention for a number of veterinary bacterial pathogens were determined by the broth-microdilution method according to CLSI document VET01-A4.
Microdilution trays containing a doubling dilution series of the test compound were used for the tests. The MIC results were interpreted according to the CLSI documents VET01-S3. The lowest concentration of compound at which no visible growth (i.e. no turbidity) detected by the unaided eye was recorded as the MIC.
`CC[C@H](C)[C@H](NC(=O)c1ccc(C#Cc2ccc(CN3CCS(=O)(=O)CC3)cc2)cc1)C(=O)NO` [Compound 142] showed an MIC PM 6391 of 0.4 µg/mL (≈ 0.804 µM).

Consider `CC(C)([C@H](NC(=O)c1ccc(C#Cc2ccc(CNCc3ccccc3)cc2)cc1)C(=O)NO)S(C)(=O)=O` [C.259], for which the MIC PM 6391 was at most 0.1 µg/mL.

The compound `CC[C@H](C)[C@H](NC(=O)c1ccc(C#Cc2ccc(CNC(C)COC)cc2)cc1)C(=O)NO` (stereo partly drawn) [Compound 185] came in with an MIC PM 6391 of 0.8 µg/mL (≈ 1.77 µM).

The subject of the next test is Pasteurella multocida PM 10775 (080130003051, BRD field isolate). The test is described as follows: MIC, broth-microdilution (CLSI VET01-A4), strain PM 10775. The format is cell-based. As to conditions: Pasteurella multocida strain PM 10775, broth-microdilution; unit assumed. The gist of the method: as §1
`CC[C@H](C)[C@H](NC(=O)c1ccc(C#Cc2ccc(CN3CCS(=O)(=O)CC3)cc2)cc1)C(=O)NO` [Compound 142] registered an MIC PM 10775 of at most 0.1 µg/mL.

Compound `CC(C)([C@H](NC(=O)c1ccc(C#Cc2ccc(CNCc3ccccc3)cc2)cc1)C(=O)NO)S(C)(=O)=O` [C.259] returned an MIC PM 10775 of at most 0.1 µg/mL.

As for `CC[C@H](C)[C@H](NC(=O)c1ccc(C#Cc2ccc(CNC(C)COC)cc2)cc1)C(=O)NO` (stereo partly drawn) [Compound 185], the MIC PM 10775 was at most 0.1 µg/mL.

In a further test the test system is Pasteurella multocida PM 12080 (IV102277-0093, BRD field isolate). The test can be described thus: MIC, broth-microdilution (CLSI VET01-A4), strain PM 12080. The format is cell-based. As to conditions: Pasteurella multocida strain PM 12080, broth-microdilution; unit assumed. The gist of the method: as §1
On to `CC[C@H](C)[C@H](NC(=O)c1ccc(C#Cc2ccc(CN3CCS(=O)(=O)CC3)cc2)cc1)C(=O)NO` [Compound 142], for which the MIC PM 12080 is 0.4 µg/mL (≈ 0.804 µM).

Compound `CC(C)([C@H](NC(=O)c1ccc(C#Cc2ccc(CNCc3ccccc3)cc2)cc1)C(=O)NO)S(C)(=O)=O` [C.259] had an MIC PM 12080 of at most 0.1 µg/mL.

In turn, `CC[C@H](C)[C@H](NC(=O)c1ccc(C#Cc2ccc(CNC(C)COC)cc2)cc1)C(=O)NO` (stereo partly drawn) [Compound 185] came in with an MIC PM 12080 of 0.4 µg/mL (≈ 0.886 µM).
